Test results from US8236792B2, “Substituted pyrrolidine amides as modulators of the histamine H3 receptor” (Janssen Pharmaceutica NV, priority 2008, dated 2012).

biological target: human H3 receptor (Homo sapiens, UniProt Q9Y5N1); experiment: H3 Receptor Binding (Human) Method 2, [125I]-iodoproxyfan competitive radioligand binding; parameters: expressed in transfected cells; conditions: read-out: Human H3 Ki
Sequence (Q9Y5N1 whole entry): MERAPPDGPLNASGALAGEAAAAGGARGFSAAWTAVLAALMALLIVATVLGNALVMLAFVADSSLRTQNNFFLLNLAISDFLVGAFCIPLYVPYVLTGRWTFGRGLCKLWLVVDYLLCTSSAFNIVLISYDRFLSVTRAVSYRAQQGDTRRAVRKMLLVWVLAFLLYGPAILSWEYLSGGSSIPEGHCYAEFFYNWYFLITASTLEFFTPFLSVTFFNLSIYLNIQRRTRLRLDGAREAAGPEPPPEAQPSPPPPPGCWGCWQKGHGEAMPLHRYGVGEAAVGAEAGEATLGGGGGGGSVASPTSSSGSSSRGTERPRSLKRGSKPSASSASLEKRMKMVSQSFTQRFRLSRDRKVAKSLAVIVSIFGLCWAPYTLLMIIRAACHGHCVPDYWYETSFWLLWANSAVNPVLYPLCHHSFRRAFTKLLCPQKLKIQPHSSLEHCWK
Method: SK-N-MC cells expressing the human H3 receptor were grown to confluence and tissue culture plates, washed with phosphate-buffered saline, and scraped into 50 mL tubes. After centrifugation, the supernatant was aspirated, and the pellets frozen and stored at −80° C. […] The homogenate was centrifuged at 25000×g for 25 min. […] Reactions were stopped by filtration through GF/B filter plates pre-soaked in 0.3% polyethylenimine and subsequently washed with Tris 50 mM, 5 mM EDTA buffer. Plates were dried for 1 h in a 55° C. oven. Scintillation fluid was added and the radioactivity was counted in a Packard TopCount. Non-specific binding to the H3 receptor was defined by radioactivity that was bound in the presence of 100 μM histamine.
Compounds were tested in their free base or hydrochloride salt forms.

| Ki [nM] | SMILES |
| --- | --- |
| 5 | CC(C)(C)OC(=O)N1C[C@H](Oc2ccccn2)C[C@H]1C(=O)N1CCCN(C2CCC2)CC1 (stereo in doubt) [Example 50, (2S,4R)-2-(4-Cyclobutyl-[1,4]diazepane-1-carbonyl)-4-(pyridin-2-yloxy)-pyrrolidine-1-carboxylic acid tert-butyl ester] |
| 2 | Cc1cnc(F)cc1O[C@@H]1C[C@@H](C(=O)N2CCCN(C3CCC3)CC2)N(C(=O)OC(C)(C)C)C1 (stereo in doubt) [Example 51, (2S,4R)-2-(4-Cyclobutyl-[1,4]diazepane-1-carbonyl)-4-(2-fluoro-5-methyl-pyridin-4-yloxy)-pyrrolidine-1-carboxylic acid tert-butyl ester] |
| 1270 | CC(C)(C)OC(=O)N1CC[C@H](O)[C@H]1C(=O)N1CCCN(C2CCC2)CC1 [Example 3, (2S,3S)-2-(4-Cyclobutyl-[1,4]diazepane-1-carbonyl)-3-hydroxy-pyrrolidine-1-carboxylic acid tert-butyl Ester] |
| 53 | CC(C)(C)OC(=O)N1C[C@@H](O)C[C@@H]1C(=O)N1CCCN(C2CCC2)CC1 [Example 4, (2R,4S)-2-(4-Cyclobutyl-[1,4]diazepane-1-carbonyl)-4-hydroxy-pyrrolidine-1-carboxylic acid tert-butyl Ester] |
| 1250 | CC(C)(C)OC(=O)N1C[C@H](O)C[C@@H]1C(=O)N1CCCN(C2CC2)CC1 [Example 5, (2R,4R)-2-(4-Cyclopropyl-[1,4]diazepane-1-carbonyl)-4-hydroxy-pyrrolidine-1-carboxylic acid tert-butyl Ester] |
| 1110 | CC(C)(C)OC(=O)N1C[C@H](O)C[C@@H]1C(=O)N1CCN(C2CCCC2)CC1 [Example 6, (2R,4R)-2-(4-Cyclopentyl-piperazine-1-carbonyl)-4-hydroxy-pyrrolidine-1-carboxylic acid tert-butyl Ester] |
| 432 | CC(C)(C)OC(=O)N1C[C@H](O)C[C@@H]1C(=O)N1CCCN(C2CCCC2)CC1 [Example 7, (2R,4R)-2-(4-Cyclopentyl-[1,4]diazepane-1-carbonyl)-4-hydroxy-pyrrolidine-1-carboxylic acid tert-butyl Ester] |
| 534 | CC(C)(C)OC(=O)N1C[C@H](O)C[C@@H]1C(=O)N1CCCN(C2CCC2)CC1 [Example 8, (2R,4R)-2-(4-Cyclobutyl-[1,4]diazepane-1-carbonyl)-4-hydroxy-pyrrolidine-1-carboxylic acid tert-butyl Ester] |
| 50 | O=C([C@H]1C[C@@H](O)CN1C(=O)OCc1ccccc1)N1CCCN(C2CCC2)CC1 [Example 9, (2R,4R)-2-(4-Cyclobutyl-[1,4]diazepane-1-carbonyl)-4-hydroxy-pyrrolidine-1-carboxylic Acid Benzyl Ester] |
| 115 | CC(=O)N1C[C@@H](O)C[C@@H]1C(=O)N1CCCN(C2CCC2)CC1 [Example 10, (2R,4S)-1-[2-(4-Cyclobutyl-[1,4]diazepane-1-carbonyl)-4-hydroxy-pyrrolidin-1-yl]-ethanone] |
| 126 | CC(C)(C)OC(=O)N1C[C@@H](Oc2ccccc2)C[C@H]1C(=O)N1CCCN(C2CCC2)CC1 [Example 14, (2S,4S)-2-(4-Cyclobutyl-[1,4]diazepane-1-carbonyl)-4-phenoxy-pyrrolidine-1-carboxylic acid tert-butyl ester] |
| 7 | CSc1ccc(O[C@H]2C[C@H](C(=O)N3CCCN(C4CCC4)CC3)N(C(=O)OC(C)(C)C)C2)cc1 [Example 23, (2R,4S)-2-(4-Cyclobutyl-[1,4]diazepane-1-carbonyl)-4-(4-methylsulfanyl-phenoxy)-pyrrolidine-1-carboxylic acid tert-butyl ester] |
| 4 | Cc1cc(O[C@H]2C[C@H](C(=O)N3CCCN(C4CCC4)CC3)N(C(=O)OC(C)(C)C)C2)ccc1Cl [Example 24, (2R,4S)-4-(4-Chloro-3-methyl-phenoxy)-2-(4-cyclobutyl-[1,4]diazepane-1-carbonyl)-pyrrolidine-1-carboxylic acid tert-butyl ester] |
| 5 | CC(C)(C)OC(=O)N1C[C@@H](Oc2ccc(S(C)(=O)=O)cc2)C[C@@H]1C(=O)N1CCCN(C2CCC2)CC1 [Example 25, (2R,4S)-2-(4-Cyclobutyl-[1,4]diazepane-1-carbonyl)-4-(4-methanesulfonyl-phenoxy)-pyrrolidine-1-carboxylic acid tert-butyl ester] |
| 12 | COc1cccc(O[C@H]2C[C@H](C(=O)N3CCCN(C4CCC4)CC3)N(C(=O)OC(C)(C)C)C2)c1 [Example 26, (2R,4S)-2-(4-Cyclobutyl-[1,4]diazepane-1-carbonyl)-4-(3-methoxy-phenoxy)-pyrrolidine-1-carboxylic acid tert-butyl ester] |
| 7 | CC(C)(C)OC(=O)N1C[C@@H](Oc2ccc(C(F)(F)F)cc2)C[C@@H]1C(=O)N1CCCN(C2CCC2)CC1 [Example 28, (2R,4S)-2-(4-Cyclobutyl-[1,4]diazepane-1-carbonyl)-4-(4-trifluoromethyl-phenoxy)-pyrrolidine-1-carboxylic acid tert-butyl ester] |

| Ki [nM] | SMILES |
| --- | --- |
| 8 | Cc1ccc(O[C@H]2C[C@H](C(=O)N3CCCN(C4CCC4)CC3)N(C(=O)OC(C)(C)C)C2)cc1 [Example 29, (2R,4S)-2-(4-Cyclobutyl-[1,4]diazepane-1-carbonyl)-4-p-tolyloxy-pyrrolidine-1-carboxylic acid tert-butyl ester] |
| 8 | Cc1ccccc1O[C@H]1C[C@H](C(=O)N2CCCN(C3CCC3)CC2)N(C(=O)OC(C)(C)C)C1 [Example 30, (2R,4S)-2-(4-Cyclobutyl-[1,4]diazepane-1-carbonyl)-4-o-tolyloxy-pyrrolidine-1-carboxylic acid tert-butyl ester] |
| 15 | CC(C)(C)OC(=O)N1C[C@@H](Oc2ccc(F)cc2)C[C@@H]1C(=O)N1CCCN(C2CC2)CC1 [Example 31, (2R,4S)-2-(4-Cyclopropyl-[1,4]diazepane-1-carbonyl)-4-(4-fluoro-phenoxy)-pyrrolidine-1-carboxylic acid tert-butyl ester] |
| 10 | CC(C)(C)OC(=O)N1C[C@@H](Oc2ccc(C#N)cc2)C[C@@H]1C(=O)N1CCCN(C2CC2)CC1 [Example 32, (2R,4S)-4-(4-Cyano-phenoxy)-2-(4-cyclopropyl-[1,4]diazepane-1-carbonyl)-pyrrolidine-1-carboxylic acid tert-butyl ester] |
| 24 | CC(C)(C)OC(=O)N1C[C@@H](Oc2ccc(F)cc2)C[C@@H]1C(=O)N1CCN(C2CCCC2)CC1 [Example 33, (2R,4S)-2-(4-Cyclopentyl-piperazine-1-carbonyl)-4-(4-fluoro-phenoxy)-pyrrolidine-1-carboxylic acid tert-butyl ester] |
| 14 | CC(C)(C)OC(=O)N1C[C@@H](Oc2ccc(C#N)cc2)C[C@@H]1C(=O)N1CCN(C2CCCC2)CC1 [Example 34, (2R,4S)-4-(4-Cyano-phenoxy)-2-(4-cyclopentyl-piperazine-1-carbonyl)-pyrrolidine-1-carboxylic acid tert-butyl ester] |
| 2 | CC(C)(C)OC(=O)N1C[C@@H](Oc2ccc(F)cc2)C[C@@H]1C(=O)N1CCCN(C2CCCC2)CC1 [Example 35, (2R,4S)-2-(4-Cyclopentyl-[1,4]diazepane-1-carbonyl)-4-(4-fluoro-phenoxy)-pyrrolidine-1-carboxylic acid tert-butyl ester] |
| 3 | CC(C)(C)OC(=O)N1C[C@@H](Oc2ccc(C#N)cc2)C[C@@H]1C(=O)N1CCCN(C2CCCC2)CC1 [Example 36, (2R,4S)-4-(4-Cyano-phenoxy)-2-(4-cyclopentyl-[1,4]diazepane-1-carbonyl)-pyrrolidine-1-carboxylic acid tert-butyl ester] |
| > 10000 | CN(C)[C@@H]1CCN(C(=O)[C@H]2C[C@H](Oc3cccc(F)c3)CN2C(=O)OC(C)(C)C)C1 [Example 37, (2R,4S)-2-((3R)-3-Dimethylamino-pyrrolidine-1-carbonyl)-4-(3-fluoro-phenoxy)-pyrrolidine-1-carboxylic acid tert-butyl ester] |
| 43 | CC(C)(C)OC(=O)N1C[C@@H](Oc2cccc(F)c2)C[C@@H]1C(=O)N1CCC(N2CCCC2)C1 (stereo partly drawn) [Example 39, (2R,4S)-2-([1,3′]Bipyrrolidinyl-1′-carbonyl)-4-(3-fluoro-Phenoxy)-pyrrolidine-1-carboxylic acid tert-butyl ester] |
| 1240 | CN(C)C1CCN(C(=O)[C@H]2C[C@H](Oc3ccc(F)cc3)CN2C(=O)OC(C)(C)C)CC1 [Example 40, (2R,4S)-2-(4-Dimethylamino-piperidine-1-carbonyl)-4-(4-fluoro-phenoxy)-pyrrolidine-1-carboxylic acid tert-butyl ester] |
| 14 | CC(C)(C)OC(=O)N1C[C@H](Oc2ccccc2)C[C@H]1C(=O)N1CCCN(C2CCC2)CC1 [Example 48, (2S,4R)-2-(4-Cyclobutyl-[1,4]diazepane-1-carbonyl)-4-phenoxy-pyrrolidine-1-carboxylic acid tert-butyl ester] |
| 6 | CC(C)(C)OC(=O)N1C[C@H](Oc2cccc(F)c2)C[C@H]1C(=O)N1CCCN(C2CCC2)CC1 [Example 49, (2S,4R)-2-(4-Cyclobutyl-[1,4]diazepane-1-carbonyl)-4-(3-fluoro-phenoxy)-pyrrolidine-1-carboxylic acid tert-butyl ester] |
| 8 | Cc1cnc(O[C@H]2C[C@H](C(=O)N3CCCN(C4CCC4)CC3)N(C(=O)OC(C)(C)C)C2)cc1I [Example 52, (2R,4S)-2-(4-Cyclobutyl-[1,4]diazepane-1-carbonyl)-4-(4-iodo-5-methyl-pyridin-2-yloxy)-pyrrolidine-1-carboxylic acid tert-butyl ester] |
| 2 | CC(C)(C)OC(=O)N1C[C@@H](Oc2cccnc2)C[C@@H]1C(=O)N1CCCN(C2CCC2)CC1 [Example 53, (2R,4S)-2-(4-Cyclobutyl-[1,4]diazepane-1-carbonyl)-4-(pyridin-3-yloxy)-pyrrolidine-1-carboxylic acid tert-butyl ester] |
| 11 | CC(C)(C)OC(=O)N1C[C@@H](Oc2ccsc2)C[C@@H]1C(=O)N1CCCN(C2CCC2)CC1 [Example 54, (2R,4S)-2-(4-Cyclobutyl-[1,4]diazepane-1-carbonyl)-4-(thiophen-3-yloxy)-pyrrolidine-1-carboxylic acid tert-butyl ester] |
